Data on eleven compounds can be found in ChEMBL document CHEMBL1134136, “Novel piperidinyloxy oxazolidinone antimicrobial agents” (2001).

Broadly, the MIC is the least concentration at which growth counts as inhibited.

Common to all, as to type: functional
Test [1] deals with Escherichia coli. The experiment in a line: Antibacterial activity against Escherichia coli (OC 2605).
Test [2] concerns Enterococcus faecium. The test is described as follows: Antibacterial activity against vancomycin - resistant Enterococcus faecium (OC 3312 VRE).
The test system of test [3] is Escherichia coli. The experiment in a line: Antibacterial activity against Escherichia coli (OC 2530) (HS).
Test [4] has as its system Staphylococcus aureus. The test is described as follows: Antibacterial activity towards methicillin - resistant Staphylococcus aureus (MRSA OC2878).
The subject of test [5] is Staphylococcus aureus. The test is described as follows: Antibacterial activity against methicillin susceptible Staphylococcus aureus (OC 4172) in presence of 50% mouse serum.
Test [6] has as its system Staphylococcus aureus. The test is described as follows: Antibacterial activity against methicillin susceptible Staphylococcus aureus (OC 4172) in broth (without serum).
Another test deals with Enterococcus faecalis. The test is described as follows: Antibacterial activity against Enterococcus faecalis (ATCC 29212).
Test [7] deals with Staphylococcus aureus. The experiment in a line: Antibacterial activity against methicillin - resistant Staphylococcus aureus (MRSA OC2878).
For test [8], the system named is Enterococcus faecium. The experiment in a line: Minimum inhibitory concentration against vancomycin - resistant Enterococcus faecium (OC 3312 VRE).

In brackets after ≈: the same amount, converted by molar mass.

`CC(=O)NC[C@H]1CN(c2ccc(N3CCOCC3)c(F)c2)C(=O)O1` [LINEZOLID]: the MIC against Escherichia coli [1] worked out at 32 mg/L (≈ 94.9 µM); in the test on Enterococcus faecium [2] it was 2 mg/L (≈ 5.93 µM); with Escherichia coli [3] it was 8 mg/L (≈ 23.7 µM).

Turning to `CC(=O)NC[C@H]1CN(c2ccc(OC3CCN(C(=O)COCc4ccccc4)CC3)c(F)c2)C(=O)O1`, the MIC with Escherichia coli [1] is greater than 128 mg/L; with Staphylococcus aureus [4], 2 mg/L (≈ 4 µM); with Staphylococcus aureus [5], 16 mg/L; against Staphylococcus aureus [6] it was 4 mg/L (≈ 8.01 µM); in the test on Enterococcus faecium [2], 4 mg/L (≈ 8.01 µM); against Enterococcus faecalis, 4 mg/L (≈ 8.01 µM). Further, in the test with Escherichia coli [3], the MIC is greater than 32 mg/L.

Regarding `CC(=O)NC[C@H]1CN(c2ccc(OC3CCN(C(=O)CO)CC3)cc2)C(=O)O1`, the MIC against Escherichia coli [1] is greater than 128 mg/L; with Staphylococcus aureus [7] it was 16 mg/L (≈ 40.9 µM); with Staphylococcus aureus [5], 32 mg/L; in the test with Staphylococcus aureus [6], 16 mg/L (≈ 40.9 µM); in the test with Enterococcus faecium [2], 32 mg/L (≈ 81.8 µM); in the test with Enterococcus faecalis it was 32 mg/L (≈ 81.8 µM). Also, the MIC in the test on Escherichia coli [3] was greater than 128 mg/L.

Consider `CC(=O)NC[C@H]1CN(c2ccc(OC3CN(C(=O)COCc4ccccc4)C3)c(F)c2)C(=O)O1`, for which the MIC in the test with Escherichia coli [1] was greater than 128 mg/L; against Staphylococcus aureus [7], 8 mg/L (≈ 17 µM); in the test on Staphylococcus aureus [5], 16 mg/L; with Staphylococcus aureus [6] it was 8 mg/L (≈ 17 µM); against Enterococcus faecium [2], 16 mg/L (≈ 33.9 µM); in the test with Enterococcus faecalis, 16 mg/L (≈ 33.9 µM). The compound further showed an MIC with Escherichia coli [3] of 64 mg/L (≈ 136 µM).

`CC(=O)NC[C@H]1CN(c2ccc(OC3CCN(C(=O)COCc4ccccc4)C3)c(F)c2)C(=O)O1` (stereo partly drawn): the MIC against Escherichia coli [1] is greater than 128 mg/L; against Staphylococcus aureus [7], 16 mg/L (≈ 33 µM); with Staphylococcus aureus [5] it was 16 mg/L; with Staphylococcus aureus [6], 16 mg/L (≈ 33 µM); in the test on Enterococcus faecium [2], 16 mg/L (≈ 33 µM); in the test with Enterococcus faecalis, 16 mg/L (≈ 33 µM). Also, the MIC against Escherichia coli [3] was greater than 128 mg/L.

`CC(=O)NC[C@H]1CN(c2ccc(OC3CN(C(=O)CO)C3)c(F)c2)C(=O)O1`: the MIC against Escherichia coli [1] is greater than 128 mg/L; with Staphylococcus aureus [7], 8 mg/L (≈ 21 µM); in the test on Staphylococcus aureus [5], 8 mg/L; against Staphylococcus aureus [6] it was 8 mg/L (≈ 21 µM); in the test with Enterococcus faecium [2] it was 16 mg/L (≈ 42 µM); in the test with Enterococcus faecalis, 16 mg/L (≈ 42 µM). This compound also yielded an MIC in the test with Escherichia coli [3] greater than 128 mg/L.

Regarding `CC(=O)NC[C@H]1CN(c2ccc(OC3CCCN(C(=O)COCc4ccccc4)C3)c(F)c2)C(=O)O1` (stereo partly drawn), the MIC against Escherichia coli [1] was greater than 128 mg/L; with Staphylococcus aureus [7], 32 mg/L (≈ 64.1 µM); with Staphylococcus aureus [5], 32 mg/L; in the test on Staphylococcus aureus [6] it was 32 mg/L (≈ 64.1 µM); against Enterococcus faecium [2] it was 64 mg/L (≈ 128 µM); against Enterococcus faecalis, 64 mg/L (≈ 128 µM). The MIC in the test with Escherichia coli [3] is greater than 64 mg/L.

`CC(=O)NC[C@H]1CN(c2ccc(OC3CCN(C(=O)COCc4ccccc4)CC3)cc2)C(=O)O1`: the MIC against Escherichia coli [1] stood at 128 mg/L (≈ 266 µM); against Staphylococcus aureus [7] it was 8 mg/L (≈ 16.6 µM); in the test with Staphylococcus aureus [5], 64 mg/L; in the test with Staphylococcus aureus [6] it was 16 mg/L (≈ 33.2 µM); against Enterococcus faecalis, 16 mg/L (≈ 33.2 µM); against Escherichia coli [3], 128 mg/L (≈ 266 µM). Moreover, in the test on Enterococcus faecium [8], the lowest concentration to inhibit growth (MIC) was 16 mg/L (≈ 33.2 µM).

Take `CC(=O)NC[C@H]1CN(c2ccc(OC3CCN(C(=O)CO)CC3)c(F)c2)C(=O)O1`: the MIC against Escherichia coli [1] was greater than 128 mg/L; against Staphylococcus aureus [7] it was 4 mg/L (≈ 9.77 µM); in the test with Staphylococcus aureus [5] it was 4 mg/L; in the test on Staphylococcus aureus [6], 4 mg/L (≈ 9.77 µM); in the test with Enterococcus faecium [2], 8 mg/L (≈ 19.5 µM); in the test with Enterococcus faecalis, 8 mg/L (≈ 19.5 µM). The same compound gave an MIC in the test with Escherichia coli [3] of 128 mg/L (≈ 313 µM).

Consider `CC(=O)NC[C@H]1CN(c2ccc(OC3CCN(C(=O)CO)C3)c(F)c2)C(=O)O1` (stereo partly drawn), for which the MIC with Escherichia coli [1] was 128 mg/L (≈ 324 µM); with Staphylococcus aureus [7], 8 mg/L (≈ 20.2 µM); with Staphylococcus aureus [5], 4 mg/L; with Staphylococcus aureus [6], 4 mg/L (≈ 10.1 µM); with Enterococcus faecium [2] it was 16 mg/L (≈ 40.5 µM); with Enterococcus faecalis, 16 mg/L (≈ 40.5 µM). In the test with Escherichia coli [3], this compound showed an MIC of 128 mg/L (≈ 324 µM).

As for `CC(=O)NC[C@H]1CN(c2ccc(OC3CCCN(C(=O)CO)C3)c(F)c2)C(=O)O1` (stereo partly drawn), the MIC in the test with Escherichia coli [1] was greater than 128 mg/L; against Staphylococcus aureus [7] it was 8 mg/L (≈ 19.5 µM); in the test on Staphylococcus aureus [5] it was 8 mg/L; against Staphylococcus aureus [6], 8 mg/L (≈ 19.5 µM); against Enterococcus faecium [2], 16 mg/L (≈ 39.1 µM); against Enterococcus faecalis, 16 mg/L (≈ 39.1 µM). In addition, the MIC against Escherichia coli [3] came out at 128 mg/L (≈ 313 µM).
